For 26 molecules, IC50 results are on record in US7495104B2, “Quinoline or quinazoline derivatives inhibiting auto-phosphorylation of fibroblast growth factor receptors” (Kirin Beer Kabushiki Kaisha, priority 2001, dated 2009).

Structures are written as SMILES. Structures can show the parent of a compound that is named as a salt.

Bek, sequence (P21802 431-767 limits assumed): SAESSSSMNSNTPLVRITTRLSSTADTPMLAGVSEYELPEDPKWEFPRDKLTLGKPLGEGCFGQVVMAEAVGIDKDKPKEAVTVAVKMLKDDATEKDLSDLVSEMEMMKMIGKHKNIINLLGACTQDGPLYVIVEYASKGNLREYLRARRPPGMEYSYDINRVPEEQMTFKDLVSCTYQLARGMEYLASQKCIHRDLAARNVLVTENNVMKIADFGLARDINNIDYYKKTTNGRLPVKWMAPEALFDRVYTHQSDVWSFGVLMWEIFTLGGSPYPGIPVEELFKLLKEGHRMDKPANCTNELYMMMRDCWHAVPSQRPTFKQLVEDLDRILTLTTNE

For this assay, the target named is Bek (Homo sapiens, UniProt P21802). In words: Inhibitory activity against Bek-autophosphorylation using ELISA method in OCUM-2MD3 cells. In kind it is cell-based. Particulars: 1 hr with compound, read-out: IC50 (concentration necessary for inhibiting 50% of Bek-phosphorylation). The procedure:
Human scirrhus stomach cancer cells OCUM-2MD3 (kindly provided by Dr. Kosei Hirakawa, Osaka City University) were cultured in an RPMI medium containing 10% fetal calf serum (purchased from ICN) within a 5% carbon dioxide incubator until 50 to 90% confluent. The harvested cells were seeded onto 96-well flat-bottom plate in RPMI containing 0.1% fetal calf serum at 3.5×10^4 cells per well, followed by cultivation at 37° C. overnight. A solution of the test compound in dimethyl sulfoxide was added to each well, and the cultivation was continued at 37° C. for additional one hr. The medium was removed, and 50 μl of lysis buffer (20 mM HEPES (pH 7.4), 150 mM NaCl, 0.2% Triton X-100, 10% glycerol, 5 mM sodium orthovanadylate, 5 mM disodium ethylenediaminetetraacetate, and 2 mM Na4P2O7) was then added thereto. The mixture was shaken at 4° C. for 2 hr to prepare cell extracts.
Separately, phosphate buffered saline (50 μl, pH 7.4) containing 5 μg/ml of anti-phospho-tyrosine antibody (PY20; purchased from Transduction Laboratories) was added to a microplate for ELISA (Maxisorp; purchased from NUNC), followed by standing at 4° C. overnight to form a solid phase on the wells. After washing of the plate, 300 μl of a blocking solution was added, followed by standing at room temperature for 2 hr to perform blocking. After washing, the whole quantity of the cell extracts was transferred to the wells, and the plate was then allowed to stand at 4° C. overnight. After washing, an anti-Bek antibody (Bek (C-17), purchased from Santa Cruz Biotechnology) or Anti-Human K-sam Rabbit IgG Affinity Purity (purchased from IBL Co., Ltd.) was allowed to react at room temperature for one hr, and, after washing, a peroxidase-labeled anti-rabbit Ig antibody (purchased from Amersham) was allowed to react at room temperature for one hr. After washing, a chromophoric substrate for peroxidase (purchased from Sumitomo Bakelite Co., Ltd.) was added thereto to initiate a reaction. After a suitable level of color development, a reaction termination solution was added to stop the reaction, and the absorbance at 450 nm was measured with a microplate reader. The Bek-phosphorylation activity for each well was determined by presuming the absorbance without the addition of the medicament to be 100% Bek-phosphorylation activity and the absorbance with the addition of a large excess of a positive control (N-{4-[(6,7-dimethoxy-4-quinolyl)oxy]phenyl}-N′-(3,3-dimethylbutyl)urea, 1000 nM) to be 0% Bek-phosphorylation activity. The concentration of the test compound was varied on several levels, the Bek-phosphorylation inhibitory activity was determined for each case, and the concentration of the test compound necessary for inhibiting 50% of Bek-phosphorylation (IC50) was calculated.
(In general: ELISA stands for enzyme-linked immunosorbent assay.)
As for `COc1cc2c(Oc3ccc(NC(=O)NCCC(C)(C)C)cc3)ccnc2cc1OCCN(C)CCO` [Compound 328, 1-(3,3-Dimethyl-butyl)-3-[4-(7-{2-[(2-hydroxy-ethyl)-methyl-amino]-ethoxy}-6-methoxy-quinolin-4-yloxy)-phenyl]-urea], the IC50 was 37 nM. The figure for `COc1cc2c(Oc3ccc(NC(=O)NCCC(C)(C)C)cc3)ccnc2cc1OCCN1CCC(CCO)CC1` [Compound 219, 1-(3,3-Dimethyl-butyl)-3-[4-(7-{2-[4-(2-hydroxy-ethyl)-piperidin-1-yl]-ethoxy}-6-methoxy-quinolin-4-yloxy)-phenyl]-urea] is below 10 nM; for `COc1cc2c(Oc3ccc(Nc4ccc(C(C)(C)C)cc4)cc3)ccnc2cc1OCc1csc(C)n1` [Compound 28, (4-Tert-butylphenyl)-{4-[6-methoxy-7-(2-methylthiazol-4-ylmethoxy)quinolin-4-yloxy]phenyl}amine] it is 2400 nM. The figure for `COc1cc2c(Oc3ccc(Nc4ccc(C(C)(C)C)cc4)cc3)ccnc2cc1OCCN(CCO)CCO` [Compound 349, 2-[(2-{4-[4-(4-Tert-butyl-phenylamino)-phenoxy]-6-methoxy-quinolin-7-yloxy}-ethyl)-(2-hydroxy-ethyl)-amino]-ethanol hydrochloride] is 95.9 nM. The figure for `COc1cc2c(Oc3ccc(NC(=O)NCCC(C)(C)C)c(F)c3)ccnc2cc1OCCN1C(C)(C)CCCC1(C)C` [Compound 131, 1-(3,3-Dimethyl-butyl)-3-(2-fluoro-4-{6-methoxy-7-[2-(2,2,6,6-tetramethyl-piperidin-1-yl)-ethoxy]-quinolin-4-yloxy}-phenyl)-urea] is 161 nM; for `COc1cc2c(Oc3ccc(NC(=O)NC4CCCC(C)(C)C4)c(F)c3)ccnc2cc1OCCN1CCOCC1` (centres unmarked) [Compound 133, 1-(3,3-Dimethyl-cyclohexyl)-3-{2-fluoro-4-[6-methoxy-7-(2-morpholin-4-yl-ethoxy)-quinolin-4-yloxy]-phenyl}-urea] it is 9.2 nM; for `COc1cc2c(Oc3ccc(Nc4ccc(C(C)(C)C)cc4)cc3)ccnc2cc1OCCCN1CCCCC1` [Compound 34, (4-Tert-butylphenyl)-{4-[6-methoxy-7-(3-piperidin-1-ylpropoxy)-quinolin-4-yloxy]phenyl}amine] it is 219 nM. Regarding `COc1cc2c(Oc3ccc(Nc4ccc(C(C)(C)C)cc4)cc3)ccnc2cc1OCCN(CC(C)O)CC(C)O` (centres unmarked) [Compound 352, 1-[(2-{4-[4-(4-Tert-butyl-phenylamino)-phenoxy]-6-methoxy-quinolin-7-yloxy}-ethyl)-(2-hydroxy-propyl)-amino]-propan-2-ol], the IC50 was 54.7 nM. The figure for `CCN(CC)CC(O)COc1cc2nccc(Oc3ccc(Nc4ccc(C(C)(C)C)cc4)cc3)c2cc1OC` (centres unmarked) [Compound 60, 1-{4-[4-(4-Tert-butyl-phenylamino)phenoxy]-6-methoxyquinolin-7-yloxy}-3-diethylaminopropan-2-ol] is 203 nM. With `COc1cc2nccc(Oc3ccc(Nc4ccc(C(C)(C)C)cc4)cc3)c2cc1OCCN(CCO)CCO` [Compound 358, 2-[(2-{4-[4-(4-Tert-butyl-phenylamino)-phenoxy]-7-methoxy-quinolin-6-yloxy}-ethyl)-(2-hydroxy-ethyl)-amino]-ethanol], the IC50 was 51.7 nM.

With `CCN(CCO)CCCOc1cc2nccc(Oc3ccc(NC(=O)NCCC(C)(C)C)c(Cl)c3)c2cc1OC` [Compound 345, 1-[2-Chloro-4-(7-{3-[ethyl-(2-hydroxy-ethyl)-amino]-propoxy}-6-methoxy-quinolin-4-yloxy)-phenyl]-3-(3,3-dimethyl-butyl)-urea], the IC50 worked out at 9.8 nM. On to `COc1cc2nccc(Oc3ccc(NC(=O)NCCC(C)(C)C)cc3)c2cc1OC` [Compound 101, 1-[4-(6,7-Dimethoxy-quinolin-4-yloxy)-phenyl]-3-(3,3-dimethyl-butyl)-urea], for which the IC50 was below 10 nM. The figure for `COc1cc2c(Oc3ccc(NC(=O)NCCC(C)(C)C)c(Cl)c3)ccnc2cc1OCCCN1CCC(C)CC1` [Compound 207, 1-(2-Chloro-4-{6-methoxy-7-[3-(4-methyl-piperidin-1-yl)-propoxy]-quinolin-4-yloxy}-phenyl)-3-(3,3-dimethyl-butyl)-urea] is 60 nM; for `COc1cc2c(Oc3ccc(Nc4ccc(C(C)(C)C)cc4)cc3)ccnc2cc1OCCN1CCN(C)CC1` [Compound 33, (4-Tert-butylphenyl)-(4-{6-methoxy-7-[2-(4-methylpiperazin-1-yl)ethoxy]quinolin-4-yloxy}phenyl)amine] it is 155 nM. For `COc1cc2c(Oc3ccc(NC(=O)NCCC(C)(C)C)c(Cl)c3)ccnc2cc1OCCN1CCC(CO)CC1` [Compound 275, 1-(2-Chloro-4-{7-[2-(4-hydroxymethyl-piperidin-1-yl)-ethoxy]-6-methoxy-quinolin-4-yloxy}-phenyl)-3-(3,3-dimethyl-butyl)-urea], the IC50 was found to be 31.6 nM. The figure for `CCNCC(O)COc1cc2nccc(Oc3ccc(Nc4ccc(C(C)(C)C)cc4)cc3)c2cc1OC` (centres unmarked) [Compound 66, 1-{4-[4-(4-Tert-butylphenylamino)phenoxy]-6-methoxyquinolin-7-yloxy}-3-ethylaminopropan-2-ol] is 199 nM. Regarding `COc1cc2c(Oc3ccc(NC(=O)NCCC(C)(C)C)c(Cl)c3)ccnc2cc1OCCN(C)C` [Compound 166, 1-{2-Chloro-4-[7-(2-dimethylamino-ethoxy)-6-methoxy-quinolin-4-yloxy]-phenyl}-3-(3,3-dimethyl-butyl)-urea], the IC50 was determined as 39 nM. The figure for `COc1cc2c(Oc3ccc(Nc4ccc(C(C)(C)C)cc4)cc3F)ccnc2cc1OCCN1CCC(CO)CC1` [Compound 283, [1-(2-{4-[4-(4-Tert-butyl-phenylamino)-2-fluoro-phenoxy]-6-methoxy-quinolin-7-yloxy}-ethyl)-piperidin-4-yl]-methanol] is 167 nM; for `COc1cc2c(Oc3ccc(NC(=O)NCCC(C)(C)C)cc3Cl)ccnc2cc1OCCN1CCOCC1` [Compound 126, 1-{3-Chloro-4-[6-methoxy-7-(2-morpholin-4-yl-ethoxy)-quinolin-4-yloxy]-phenyl}-3-(3,3-dimethyl-butyl)-urea] it is 13.3 nM; for `COc1cc2c(Oc3ccc(Nc4ccc(C(C)(C)C)cc4)cc3)ccnc2cc1OCCN1CCC(N2CCCC2)CC1` [Compound 243, (4-Tert-butyl-phenyl)-(4-{6-methoxy-7-[2-(4-pyrrolidin-1-yl-piperidin-1-yl)-ethoxy]-quinolin-4-yloxy}-phenyl)-amine] it is 342 nM.

On to `COc1cc2c(Oc3ccc(Nc4ccc(C(C)(C)C)cc4)cc3Cl)ccnc2cc1OCCN(CCO)CCO` [Compound 346, 2-[(2-{4-[4-(4-Tert-butyl-phenylamino)-2-chloro-phenoxy]-6-methoxy-quinolin-7-yloxy}-ethyl)-(2-hydroxy-ethyl)-amino]-ethanol], for which the IC50 worked out at 294 nM. For the molecule `COc1cc2nccc(Oc3ccc(Nc4ccc(C(C)(C)C)cc4)c(F)c3)c2cc1OC` [Compound 19, (4-Tert-butylphenyl)-[4-(6,7-dimethoxyquinolin-4-yloxy)-2-fluorophenyl]amine], the IC50 stood at 195 nM.

In the case of `COc1cc2c(Oc3ccc(NC(=O)NCCC(C)(C)C)cc3)ccnc2cc1OCCN1CCOCC1` [Compound 112, 1-(3,3-Dimethyl-butyl)-3-{4-[6-methoxy-7-(2-morpholin-4-yl-ethoxy)-quinolin-4-yloxy]-phenyl}-urea hydrochloride], the IC50 was 52.1 nM. The figure for `COc1cc2nccc(Oc3ccc(NC(=O)NCCC(C)(C)C)cc3)c2cc1OCCCN1CCC(CCO)CC1` [Compound 324, 1-(3,3-Dimethyl-butyl)-3-[4-(6-{3-[4-(2-hydroxy-ethyl)-piperidin-1-yl]-propoxy}-7-methoxy-quinolin-4-yloxy)-phenyl]-urea] is 287 nM; for `COc1cc2nccc(Oc3ccc(NC(=O)NCCC(C)(C)C)cc3)c2cc1OCCCN1CCOCC1` [Compound 223, 1-(3,3-Dimethyl-butyl)-3-{4-[7-methoxy-6-(3-morpholin-4-yl-propoxy)-quinolin-4-yloxy]-phenyl}-urea] it is 49.8 nM. The figure for `COc1cc2nccc(Oc3ccc(NC(=O)NCCC(C)(C)C)cc3Cl)c2cc1OC` [Compound 374, 1-[3-Chloro-4-(6,7-dimethoxy-quinolin-4-yloxy)-phenyl]-3-(3,3-dimethyl-butyl)-urea] is 32.8 nM.
